According to patent US6939711B2, “Control of gene expression in plants by receptor mediated transactivation in the presence of a chemical ligand” (Syngenta Investment Corporation, priority 1995, dated 2005):
Like-named read-outs stand apart in the source and are kept apart here.

Legend:
[1] = biological target: T1, receptor polypeptide EcR and chimeric receptor polypeptide VP16-USP (Drosophila melanogaster, UniProt P34021); type: cell-based; details: 48 hours, maize cells, 35S/EcR + 35S/VP16-USP, (EcRE)6-Bz1/Luc
T1 construct: expressed in transfected cells; host or cells: maize suspension cells (microprojectile bombardment)
T1 sequence (P34021 1-878): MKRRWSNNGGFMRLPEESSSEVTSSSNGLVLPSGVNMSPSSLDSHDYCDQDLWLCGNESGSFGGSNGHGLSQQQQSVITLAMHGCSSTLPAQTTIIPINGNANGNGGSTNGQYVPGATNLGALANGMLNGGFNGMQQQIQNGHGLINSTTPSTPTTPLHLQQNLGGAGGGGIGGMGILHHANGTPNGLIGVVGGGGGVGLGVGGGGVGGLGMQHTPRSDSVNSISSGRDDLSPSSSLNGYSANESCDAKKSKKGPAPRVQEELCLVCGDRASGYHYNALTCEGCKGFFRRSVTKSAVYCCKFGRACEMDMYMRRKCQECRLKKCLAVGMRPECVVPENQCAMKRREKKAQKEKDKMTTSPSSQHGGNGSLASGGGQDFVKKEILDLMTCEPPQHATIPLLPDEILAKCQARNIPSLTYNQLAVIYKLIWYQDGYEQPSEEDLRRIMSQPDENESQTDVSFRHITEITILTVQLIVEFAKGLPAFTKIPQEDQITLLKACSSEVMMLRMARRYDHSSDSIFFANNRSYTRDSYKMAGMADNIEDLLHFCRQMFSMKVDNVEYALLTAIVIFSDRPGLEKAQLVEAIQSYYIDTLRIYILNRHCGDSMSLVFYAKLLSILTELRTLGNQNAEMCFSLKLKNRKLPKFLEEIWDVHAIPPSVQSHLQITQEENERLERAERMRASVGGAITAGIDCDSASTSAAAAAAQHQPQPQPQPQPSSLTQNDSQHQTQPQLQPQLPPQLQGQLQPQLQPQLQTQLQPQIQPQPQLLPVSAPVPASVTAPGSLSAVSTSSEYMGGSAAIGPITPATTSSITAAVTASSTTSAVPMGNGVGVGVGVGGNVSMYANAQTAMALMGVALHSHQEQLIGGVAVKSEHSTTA
Description: (§1) Control of target polypeptide expression by various receptor polypeptides, including the chimeric receptor polypeptides of the present invention, can be shown by simultaneously transforming plant cells with the necessary gene constructions using high velocity microprojectile bombardment, followed by biochemical assay for the presence of the target polypeptide. The necessary gene constructions comprise a first receptor expression cassette which encodes a first receptor polypeptide and a second receptor expression cassette which encodes a second receptor polypeptide. In addition, a target expression cassette which-encodes a target polypeptide is also necessary (FIG. 1).
The expression cassettes were simultaneously delivered to maize suspension cells cultured in liquid N6 medium (Chu et al. Scientia Sinica XVIII:659-668, 1975) by high velocity microprojectile bombardment using standard techniques of DNA precipation onto microprojectiles and high velocity bombardment driven by compressed helium (PDS-1000/He, BioRad, Hercules, Calif.). Transfected cells were incubated in liquid suspension in the presence of the appropriate chemical ligand for approximately 48 hours in N6 media After incubation, the transformed cells were harvested then homogenized at 0° C. Debris in the extracts was removed by centrifugation at 10,000 g at 4° C. for 5 minutes. Target polypeptide expression was detected by assaying the extract for the presence of the product encoded by the target expression cassette. One commonly used coding sequence for the target polypeptide when testing control of expression by the receptor polypeptides in the presence of a chemical ligand is firefly luciferase. The activity of firefly luciferase is determined by quantitating the chemiluminescence produced by luciferase catalyzed […] of luciferin using ATP as substrate (Promega Luciferase Kit, cat. no. E1500), using an Analytical Luminescence Model 2001 luminometer. […]

[2] = biological target: T2, receptor polypeptides EcR and USP (Drosophila melanogaster, UniProt P34021); assay: Luciferase reporter transactivation, 35S/EcR + 35S/USP with (EcRE)5-Bz1/Luc co-transformed into maize cells; type: cell-based; details: approximately 48 hours
T2 construct: expressed in transfected cells; host or cells: maize suspension cells (microprojectile bombardment)
T2 sequence (P34021 1-878): T1 sequence (P34021 1-878)
T2 sequence (P20153 1-508 partner): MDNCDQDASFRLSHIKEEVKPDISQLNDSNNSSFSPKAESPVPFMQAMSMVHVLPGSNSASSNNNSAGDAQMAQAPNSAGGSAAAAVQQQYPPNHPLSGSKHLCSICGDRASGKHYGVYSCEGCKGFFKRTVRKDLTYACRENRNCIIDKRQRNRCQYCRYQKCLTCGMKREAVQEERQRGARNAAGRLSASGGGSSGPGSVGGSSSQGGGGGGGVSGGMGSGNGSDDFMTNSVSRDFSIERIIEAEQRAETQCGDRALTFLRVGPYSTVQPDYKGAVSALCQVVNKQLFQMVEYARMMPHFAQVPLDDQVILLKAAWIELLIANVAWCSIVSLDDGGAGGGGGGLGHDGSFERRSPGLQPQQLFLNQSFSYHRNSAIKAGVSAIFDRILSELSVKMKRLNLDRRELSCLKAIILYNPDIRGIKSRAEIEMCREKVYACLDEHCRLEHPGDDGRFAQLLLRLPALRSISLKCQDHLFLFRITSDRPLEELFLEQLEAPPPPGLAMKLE
Description: as §1
(§2) The expression cassettes were simultaneously delivered to maize suspension cells cultured in liquid N6 medium (Chu et al. Scientia Sinica XVIII:659-668, 1975) by high velocity microprojectile bombardment using standard techniques of DNA precipation onto microprojectiles and high velocity bombardment driven by compressed helium (PDS-1000/He, BioRad, Hercules, Calif.). […] Target polypeptide expression was detected by assaying the extract for the presence of the product encoded by the target expression cassette. […]

[3] = biological target: USP-VP16 chimeric receptor polypeptide (Drosophila; herpes simplex virus) (UniProt P20153); assay: cell-based or functional assay
[4] = biological target: T3, receptor polypeptides GAL4-EcR^330-825-C1 and USP-VP16 (UniProt P34021); assay: Luciferase reporter transactivation, 35S/GAL4-EcR^330-825-C1 + 35S/USP-VP16 with (GAL4)10-Bz1/Luc in maize cells; type: cell-based, Drosophila; details: 10 μM ligand, approximately 48 hours, 35S/GAL4-EcR^330-825-C1 + 35S/USP-VP16, (GAL4)10-Bz1/Luc
T3 construct: expressed in transfected cells; host or cells: maize suspension cells (microprojectile bombardment)
Description: as §1, §2

[5] = biological target: T4, receptor polypeptides GAL4-EcR^330-825-C1 and VP16-USP (Drosophila melanogaster, UniProt P34021); assay: Luciferase reporter transactivation, 35S/GAL4-EcR^330-825-C1 + 35S/VP16-USP with (GAL4)10-Bz1/Luc in maize cells; type: cell-based; details: 10 μM ligand, approximately 48 hours
T4 construct: expressed in transfected cells; host or cells: maize suspension cells (microprojectile bombardment)
Description: as §1, §2

[6] = biological target: T5, receptor polypeptide USP and chimeric receptor polypeptide EcR^227-825-C1 (Drosophila melanogaster, UniProt P34021); assay: Luciferase reporter transactivation, 35S/USP + 35S/EcR^227-825-C1 with (EcRE)6-Bz1/Luc in maize cells; type: cell-based; details: 10 μM ligand, 48 hours, 35S/USP + 35S/EcR^227-825-C1, (EcRE)6-Bz1/Luc
T5 construct: expressed in transfected cells; host or cells: maize suspension cells (microprojectile bombardment)
Description: as §1, §2

[7] = biological target: T6, receptor polypeptides GAL4-EcR^330-878 and USP-VP16 (Drosophila melanogaster, UniProt P34021); assay: Luciferase reporter transactivation, 35S/GAL4-EcR^330-878 + 35S/USP-VP16 with (GAL4)10-Bz1/Luc in maize cells; type: cell-based
T6 construct: expressed in transfected cells; host or cells: maize suspension cells (microprojectile bombardment)
Description: as §1, §2

C[C@H]([C@H](O)CCC(C)(C)O)[C@H]1CC[C@@]2(O)C3=CC(=O)[C@@H]4C[C@@H](O)[C@@H](O)C[C@]4(C)[C@H]3CC[C@]12C [ecdysone]
Luciferase Activity (light units) ([1]; 1 μM ligand): 7,420 light units

CC(C)CC[C@@H](O)[C@](C)(O)[C@H]1CC[C@@]2(O)C3=CC(=O)[C@]4(O)C[C@@H](O)[C@@H](O)C[C@]4(C)[C@H]3[C@H](O)C[C@]12C [Muristerone, muristerone]
Luciferase Activity (light units) ([2]; 2 μM ligand): 1351 light units
Luciferase Activity (light units) ([1]; 2 μM ligand): 12,374 light units

GAL4-EcR^330-878 chimeric receptor polypeptide (from UniProt P04386 1-147; P34021 330-878)
Luciferase Activity (light units), (GAL4)10-Bz1/Luc target cassette in maize cells, with 10 uM RH5992 [3]: 131000 light units
Luciferase Activity (light units), (GAL4)10-Bz1/Luc target cassette in maize cells, without RH5992 [3]: 3590 light units
level of expression of the target polypeptide luciferase with RH5992 over that in the absence of chemical ligand [3]: 36 fold

CCc1ccc(C(=O)NN(C(=O)c2cc(C)cc(C)c2)C(C)(C)C)cc1 [RH5992, tebufenozide]
Luciferase Activity (light units) ([2]; 10 μM ligand): 860 light units
Luciferase Activity (light units) [4]: 37,579 light units
Luciferase Activity (light units) ([1]; 10 μM ligand): 7,003 light units
Luciferase Activity (light units) [5]: 11,069 light units
Luciferase Activity (light units) [6]: 24,631 light units
level of expression of luciferase above that observed in the absence of chemical ligand ([7]; 10 μM RH5992, GAL4-EcR^330-878 + USP-VP16, maize cells): 36 fold
Luciferase Activity (light units) ([7]; 10 μM ligand, approximately 48 hours, maize cells, 35S/GAL4-EcR^330-878 + 35S/USP-VP16, (GAL4)10-Bz1/Luc): 130,601 light units
